Laboratory results published in patent US5095037A, “Combined anti-inflammatory agent” (Nissho Corporation, priority 1989, dated 1992).

Tests used:
[1] = system: carrageenan-induced edema; test: Test Example 4: inhibitory effect on carrageenan-induced edema, various acid anti-inflammatory agents (Table 5); assay type: in vivo, Wister male rats; conditions: dose 4 mg/kg, single agent
Procedure: (§1) The measurement of the volume was carried out according to the method of Fujimura et al. (see Iyakuhin Kaihatsu Kisokoza, Vol. 6, "Yakubutsu no Hyoka (1)" editted by Tsuda and Nogami, p 239-282, Kabushiki Kaisha Chizin-sha, 1971).
(§2) The rate of inhibition (%) of the edema of the foot pad of each rat was calculated according to the following formula (III). [formula] MCEV: Average swollen rate of the foot pad 4 hours after the administration of carrageenan in the control group
(§3) MTEV: Average swollen rate of the foot pad 4 hours after the administration of carrageenan in the drug-given group [formula] CEV: Volume of foot pad of each rat before the administration of carrageenan
(§4) TEV: Volume of foot pad of each rat 4 hours after the administration of carrageenan
(§5) With respect to each agent, the evaluation of the inhibitory effect on edema was carried out according to the following criteria: Synergistic effect was observed:
(§6) Very great HA % + DG % ≤ ED %
(§7) Great TD % ≤ ED % < HA % + DG %
(§8) Small MD % < ED % < TD %
(§9) No synergistic effect was observed:
(§10) HA % : Inhibitory rate by the administration of sodium hyaluronate alone
(§11) DG % : Inhibitory rate by the administration of the anti-inflammatory agent alone
(§12) ED % : Inhibitory rate by the administration of the combined agent
(§13) MD % : {The greater one between HA % and DG %} × 1.2
(§14) TD % : HA % + DG % (1--HA %/100)
The inhibitory effect on carrageenan-induced edema was investigated with respect to combined agents of sodium hyaluronate (molecular weight: 8 × 10^5) and various acid anti-inflammatory agents.
(§15) Wister male rats weighing 240 to 255 (6 weeks old) were preliminarily bred for not less than 1 week. Eight rats were used in one group. A 1% solution of each test agent shown in Table 5 was administered subcutaneously into the right foot pad of each rat. Six hours after the administration, a 1% solution of carrageenen was administered subcutaneously as an irritating agent into the right foot pad of each rat in a dose of 0.1 ml/animal. The volume of the right foot pad was measured before and 4 hours after the administration of carrageenen. Then, the inhibitory effect on edema was evaluated in the same way as in Test Example 1.

[2] = system: carrageenan-induced edema; test: Test Example 6: prolonged inhibitory effect on carrageenan-induced edema, agent 16 h before carrageenan (Table 7); assay type: in vivo, Wister male rats
Procedure: as §1, §2, §3, §4, §5, §6, §7, §8, §9, §10, §11, §12, §13, §14
as §15, with “240 to 260 g (6 weeks” for “240 to 255 (6 weeks”, “in Table 7 was administered” for “in Table 5 was administered”, “each rat. Sixteen hours after” for “each rat. Six hours after”, “solution of carrageenan was administered” for “solution of carrageenen was administered”

[3] = system: carrageenan-induced edema; test: Test Example 1: inhibitory effect on carrageenan-induced edema, foot pad, agent 6 h before carrageenan (Table 2); assay type: in vivo, Wister male rats
Procedure: The inhibitory effect on carrageenan-induced edema was investigated as to combined agents of sodium hyaluronate (molecular weight: 8 ×10^5) and various anti-inflammatory agents.
Wister male rats weighing 240 to 260 g (6 weeks old) were preliminarily bred for not less than 1 week. Eight rats were used in one group. Each test agent shown in Table 2 was dissolved or suspended in an isotonic phosphate buffer solution (pH 7.0) to give a 1% solution or suspension (hereinafter referred to as "1% solution"). The solution was administered subcutaneously into the right foot pad of each rat. Six hours after the administration, a 1% solution of carrageenan was administered subcutaneously as an irritating agent into the right foot pad of the rat in a dose of 0.1 ml/animal. The volume of the right foot pad was measured before and 4 hours after the administration of carrageenan. The rate of edema inhibition (hereinafter referred to as "inhibitory rate") by each test agent was calculated from the obtained measurements and thus the inhibitory effect on edema was evaluated.
as §2, §3, §4, §5, §6, §7, §8, §9, §10, §11, §12, §13, §14

[4] = system: movable range of joint (right knee); test: Test Example 7: inhibition of the damage to the movable range of joint, fixed right knee (Table 8); assay type: in vivo, Rabbits (New Zealand White); conditions: articular cavity; for curative effect (in words): Table 8; for Inhibitory rate (damage to the movable range of joint): dose 3.0 mg/kg, once per three days, one month, single agent
Procedure: Rabbits (New Zealand White) weighing about 2 kg were preliminarily bred for not less than one week and healthy ones were selected (3 rabbits per group). The joint of right knee of each rabbit was fixed by applying a splint thereto and further completely fixed not so as to move by putting it in plaster. Then the rabbits were bred normally for one month.
During the normal breading, a 1% solution of each test agent shown in Table 8 was administered using an injection needle of gauge No. 27 into the articular cavity of each rabbit except those of the control group in a dose of 0.3 ml/kg body weight once per three days.
One day after the last administration, the splint and the plaster were removed and the movable range of the joint was measured with a protractor under anesthesia with Nembutal (trademark). The rate of inhibition of the damage to the movable range of joint with respect to each test agent was calculated from the obtained measurements and the curative effect was evaluated.
The rate of inhibition of the damage to the movable range of joint was calculated according to the following formula (IV), and the evaluation of synergistic effect was conducted under the same condition as in Test Example 1. [formula] MCJV: Average movable range of joint with respect to the rabbits of the […] group
MTJV: Average movable range of joint with respect to the rabbits of the […] group

[5] = system: carrageenan-induced edema; test: Test Example 2: inhibitory effect on carrageenan-induced edema, sodium hyaluronates of different molecular weights (Table 3); assay type: in vivo, Wister male rats; conditions: dose 4.0 mg/kg
Procedure: as §1, §2, §3, §4
The inhibitory effect on carrageenan-induced edema was investigated as to combined agents of various grades of sodium hyaluronates having different molecular weights with diclofenac sodium.
Wister male rats weighing 230 to 265 g (6 weeks old) were preliminarily bred for not less than 1 week. Eight rats were used in one group. A 1% solution of each test agent shown in Table 3 was administered subcutaneously into the right foot pad of each rat. Six hours after the administration, a 1% solution of carrageenan was administered subcutaneously as an irritating agent into the right foot pad of the rat in a dose of 0.1 ml/animal. The volume of the right foot pad was measured before and 4 hours after the administration of carrageenan. Then the inhibitory effect on edema was evaluated in the same way as in Test Example 1.

[6] = system: carrageenan-induced edema; test: Test Example 3: inhibitory effect on carrageenan-induced edema, varied ratio of diclofenac sodium to sodium hyaluronate (Table 4); assay type: in vivo, Wister male rats; conditions: dose 4 mg/kg; HA molecular weight 8 × 10^5
Procedure: as §1, §2, §3, §4
The inhibitory effect on carrageenan-induced edema was investigated with respect to combined agents of sodium hyaluronate (molecular weight: 8 × 10^5) and diclofenac sodium wherein the ratio of diclofenac sodium to sodium hyaluronate varied.
Wister male rats weighing 235 to 260 g (6 weeks old) were preliminarily bred for not less than 1 week. Eight rats were used in one group. […] The volume of the right foot pad was measured before and 4 hours after the administration of carrageenen. Then, the inhibitory effect on edema was evaluated in the same way as in Test Example 1.

ICR mice = test: Test Example 5: toxicity, number of dead mice 72 hours after subcutaneous administration (Table 6); assay type: in vivo; conditions: dose 40 mg/kg s.c., 5 mice per group
Procedure: After preliminary breeding of mail ICR mice 5 weeks old weighing 23 to 28 g (5 mice per one group) for one week, a 1% solution of each test agent shown in Table 6 wa subcutaneously administered to the mice. The number of dead mice was counted 72 hours after the administration.
The doses of the test agent used in this test were about ten times those used in Test Example 1.
The molecular weight of sodium hyaluronate is 8 × 10^5. The
doses in Table 6 mean the amounts (mg) administered per kg body weight.
The dose values, to which the mark "+" is attached, as to the combined
agents means the amounts of antiinflammatory agent added to 40 mg/kg of
sodium hyaluronate (HA).

[7] = dose 4.0 mg/kg, s.c. foot pad, single agent, 4 h after carrageenan

C=CCOc1ccc(CC(=O)O)cc1Cl [Alclofenac]
Inhibitory rate (edema) [1]: 22.9%

CC(=O)Oc1ccccc1C(=O)O [Aspirin]
Inhibitory rate (edema) [1]: 14.6%

O=C(O)Cc1ccccc1Nc1c(Cl)cccc1Cl [Diclofenac sodium]
Inhibitory rate (edema) ([2]; dose 3.0 mg/kg): 9.7%
Inhibitory rate (edema) [3, 7]: 16.9%
curative effect (in words) [4]: some curative effect
Inhibitory rate (damage to the movable range of joint) [4]: 17.3%

CC(C)Cc1ccc(C(C)C(=O)O)cc1 (stereo not drawn) [Ibuprofen]
Inhibitory rate (edema) [3, 7]: 18.2%

COc1ccc2c(c1)c(CC(=O)O)c(C)n2C(=O)c1ccc(Cl)cc1 [Indometacin]
Inhibitory rate (edema) ([2]; dose 3.0 mg/kg): 20%
Inhibitory rate (edema) ([3]; dose 1.2 mg/kg, s.c. foot pad, single agent, 4 h after carrageenan): 12.9%

Cc1cccc(Nc2ccccc2C(=O)O)c1C [Mefenamic acid]
Inhibitory rate (edema) [1]: 34.2%

CCCCC1C(=O)N(c2ccccc2)N(c2ccccc2)C1=O [Phenylbutazon, Phenylbutazone]
Inhibitory rate (edema) [3, 7]: 46.1%

CN1C(C(=O)Nc2ccccn2)=C(O)c2ccccc2S1(=O)=O [Piroxicam]
Inhibitory rate (edema) [3, 7]: 34.6%

CC(C(=O)O)c1ccc2c(c1)Cc1cccnc1O2 (stereo not drawn) [Pranoprofen]
Inhibitory rate (edema) [1]: 39.0%

C[C@]12C=CC(=O)C=C1CC[C@@H]1[C@@H]2[C@@H](O)C[C@@]2(C)[C@H]1CC[C@]2(O)C(=O)CO [Prednisolone]
Inhibitory rate (edema) ([3]; dose 0.5 mg/kg, s.c. foot pad, single agent, 4 h after carrageenan): 21.7%

O=C([O-])c1ccccc1O.[Na+] [Sodium salicylate]
Inhibitory rate (edema) ([3]; rat, in vivo, sc, 50 mg/kg): 46.6%

Cc1ccc(C(=O)c2ccc(CC(=O)O)n2C)cc1 [Tolmetin]
Inhibitory rate (edema) [1]: 25.1%

Sodium hyaluronate [Sodium hyaluronate (HA)]
Inhibitory rate (edema) ([5]; molecular weight of HA 28 × 10^4): -36.4%
Inhibitory rate (edema) ([5]; molecular weight of HA 58 × 10^4): 17.9%
Inhibitory rate (edema) ([5]; molecular weight of HA 80 × 10^4): 29.9%
Inhibitory rate (edema) ([5]; molecular weight of HA 210 × 10^4): 43.2%
Inhibitory rate (edema) [6]: 25.9%
Inhibitory rate (edema) ([2]; dose 4.0 mg/kg): 30.0%
Inhibitory rate (edema) [3, 7]: 23.5%
curative effect (in words) [4]: some curative effect
Inhibitory rate (damage to the movable range of joint) [4]: 24.5%
Number of dead mice (ICR mice): 0
Inhibitory rate (edema) [1]: 23.9%
